Values of other authors as cited in patent US20230225968A1, “PROCESS FOR PRODUCING VISIBLY CLEAR AQUEOUS CONSUMABLE PRODUCTS” (CHAVAN, Neha, priority 2020, published 2023).

Settings: oil-based delivery systems; humans

C=C(C)[C@@H]1CCC(C)=C[C@H]1c1c(O)cc(CCCCC)cc1O [CBD, cannabidiol]
total CBD absorbed: 4%
